Assay results taken from patent US20200000842A1, “COMPOSITION AND METHOD FOR IMPROVING QOL WITH MOLECULAR HYDROGEN IN CANCER- HAVING SUBJECT” (MiZ Company Limited, priority 2018, published 2020).

Legend:
[1] = test system: patient with stage 4 terminal pancreatic cancer
Method: (§1) A patient with stage 4 terminal pancreatic cancer (person) breathed a mixed gas of hydrogen and air using a gaseous hydrogen inhalation apparatus (MHG-2000α (registered trademark); MiZ Company Limited) for about 1 to 3 hours per day over about 8 months. The hydrogen concentration in MHG-2000α is about 6 to 7% by volume (hydrogen generation rate: about 140 ml/min).

[2] = normal temperature and normal pressure; cited from earlier work
[3] = test system: patient with terminal systemic metastatic cancer; conditions: person, 3 times about 2 hours each over about 1 month
Method: as §1, with “with” for “with stage 4”, “systemic metastatic” for “pancreatic”, “Limited, Kanagawa, Japan) total 3 times” for “Limited)”, “2” for “1 to 3”, “each time” for “per day”, “1 month before death of the patient.” for “8 months.”

[4] = test system: patient with terminal pancreatic cancer; conditions: person
Method: A patient with terminal pancreatic cancer (person) breathed a mixed gas of hydrogen and air using a gaseous hydrogen inhalation apparatus (MHG-2000α (registered trademark); MiZ Company Limited) over about 4 months. Here, the mixed gas of hydrogen and air was breathed twice a week (duration each time: 1 to 3 hours) over first 2 months and for about 24 hours per day over subsequent 2 months. The hydrogen concentration in MHG-2000α is about 6 to 7% by volume (hydrogen generation rate: about 140 ml/min).

[5] = about 6 to 7% by volume hydrogen
[6] = about 6 to 7% by volume hydrogen over about 4 months

With `[HH]` [hydrogen gas, molecular hydrogen] the “blood level of CA19-9 (pancreatic cancer marker)” value ([1]; about 6 months after the breathing of hydrogen gas, FIG. 1) was “sharply decreased”, the physical fatigue ([1]; after the first breathing) was “hardly complained about physical fatigue” and the “survival after being told life expectancy of 3 months” value ([1]; person, stage 4, breathing about 1 to 3 hours per day) was no less than 9 months. For the same compound, the “growth of cancer by CT imaging examination once a month” value ([1]; person, about 6 to 7% by volume hydrogen, about 1 to 3 hours per day over about 8 months) was “no tendency of growth of cancer”, the solubility in water [2] was “about 1.6 ppm” and the appetite [3, 5] was “recovered”. For the same compound, the complexion [3, 5] was “improved”, the cancerous pain ([3]; mixed gas of hydrogen and air, about 6 to 7% by volume, no opioid) was “reduced” and the appetite [4, 6] was “had appetite”. For the same compound, the insomnia [4, 6] was “improved in insomnia” and the cancerous pain ([4]; about 6 to 7% by volume hydrogen over about 4 months (twice a week 1 to 3 hours for 2 months, then about 24 hours per day for 2 months), no opioid) was “did not complain about pain or oppression”.
